Tests used:
Human Melanocortin (MC3) = molecular target: T1, Human Melanocortin (MC3) (Homo sapiens, UniProt P41968); assay: Radioligand binding, human melanocortin MC3 membranes, FlashPlate, [125I]-NDP-αMSH; conditions: compound at 10 μM, [125I]-NDP-αMSH
T1 construct: purchased Perkin Elmer Biosignal
Method in brief: (§1)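 Cloned human receptor membranes were coated onto FlashPlate wells and incubated with radioligand and compound (added from a 0.5 mM DMSO daughter plate) for 1 hour at room temperature in the dark. Scintillation counting gave percent inhibition, with DMSO defining total and reference ligand defining non-specific binding.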

Human δ-opioid (DOP) = molecular target: T2, Human δ-opioid (DOP) (Homo sapiens, UniProt P41143); assay: Radioligand binding, human δ-opioid (DOP) membranes, FlashPlate, [3H]-Bremazocine; conditions: compound at 10 μM, [3H]-Bremazocine
T2 construct: purchased Perkin Elmer Biosignal
Method in brief: as §1

Human μ-opioid (MOP) = molecular target: T3, Human μ-opioid (MOP) (Homo sapiens, UniProt P35372); assay: Radioligand binding, human μ-opioid (MOP) membranes, FlashPlate, [3H]-Naloxone; conditions: compound at 10 μM, [3H]-Naloxone
T3 construct: purchased Perkin Elmer Biosignal
Method in brief: as §1

[1] = molecular target: T4, Human neuropeptide Y (NPY-Y1) (Homo sapiens, UniProt P25929); assay: Radioligand binding, human neuropeptide Y NPY-Y1 membranes, FlashPlate, [125I]-PYY; conditions: compound at 10 μM, [125I]-PYY
T4 construct: purchased Perkin Elmer Biosignal
T4 sequence (P25929 1-384): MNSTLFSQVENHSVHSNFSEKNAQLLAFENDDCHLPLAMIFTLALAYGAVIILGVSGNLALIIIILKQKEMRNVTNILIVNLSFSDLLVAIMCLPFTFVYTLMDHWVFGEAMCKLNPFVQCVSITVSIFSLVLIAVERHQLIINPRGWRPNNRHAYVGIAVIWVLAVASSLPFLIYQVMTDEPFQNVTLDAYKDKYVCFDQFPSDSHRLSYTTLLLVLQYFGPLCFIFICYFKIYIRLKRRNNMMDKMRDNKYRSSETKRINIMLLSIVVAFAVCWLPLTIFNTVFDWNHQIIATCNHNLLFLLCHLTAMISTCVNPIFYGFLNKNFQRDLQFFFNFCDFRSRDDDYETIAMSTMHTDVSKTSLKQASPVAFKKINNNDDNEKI
Method in brief: as §1

Human κ-Opioid (KOP) = molecular target: T5, Human κ-Opioid (KOP) (Homo sapiens, UniProt P41145); assay: Radioligand binding, human κ-opioid (KOP) membranes, filtration, [3H]-Diprenorphine; conditions: compound at 10 μM, [3H]-Diprenorphine
T5 construct: purchased Perkin Elmer Biosignal
Method in brief: (§2)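 Percent inhibition of radioligand binding measured on recombinant human membranes: NK1 with [125I]-Substance P, KOP with [3H]-Diprenorphine. Incubation 1 h at room temperature, then harvest onto 0.3% PEI-soaked filters, cold Tris-HCl pH 7.4 washes and scintillation counting; non-specific binding from reference ligand wells.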

[2] = molecular target: T6, Human melanin-concentrating hormone (MCH1) (Homo sapiens, UniProt Q99705); assay: Radioligand binding, human melanin-concentrating hormone MCH1 membranes, FlashPlate, [125I]-S36057; conditions: compound at 10 μM
T6 construct: purchased Perkin Elmer Biosignal
Method in brief: as §1

Human opioid (ORL1) = molecular target: T7, Human opioid (ORL1) (Homo sapiens, UniProt P41146); assay: Radioligand binding, human opioid ORL1 membranes, FlashPlate, [125I]-Nociceptin; conditions: compound at 10 μM, [125I]-Nociceptin
T7 construct: purchased Perkin Elmer Biosignal
Method in brief: as §1

Human Melanocortin (MC4) = molecular target: T8, Human Melanocortin (MC4) (Homo sapiens, UniProt P32245); assay: Radioligand binding, human melanocortin MC4 membranes, FlashPlate, [125I]-NDP-αMSH; conditions: compound at 10 μM, [125I]-NDP-αMSH
T8 construct: purchased Perkin Elmer Biosignal
Method in brief: as §1

Mouse urotensin (mUR2) = molecular target: T9, Mouse urotensin (mUR2) (Mus musculus, UniProt Q8VIH9); assay: Radioligand binding, mouse urotensin mUR2 membranes, FlashPlate, [125I]-Urotensin II; conditions: compound at 10 μM, [125I]-Urotensin II
T9 construct: purchased Perkin Elmer Biosignal
T9 sequence (Q8VIH9 1-385): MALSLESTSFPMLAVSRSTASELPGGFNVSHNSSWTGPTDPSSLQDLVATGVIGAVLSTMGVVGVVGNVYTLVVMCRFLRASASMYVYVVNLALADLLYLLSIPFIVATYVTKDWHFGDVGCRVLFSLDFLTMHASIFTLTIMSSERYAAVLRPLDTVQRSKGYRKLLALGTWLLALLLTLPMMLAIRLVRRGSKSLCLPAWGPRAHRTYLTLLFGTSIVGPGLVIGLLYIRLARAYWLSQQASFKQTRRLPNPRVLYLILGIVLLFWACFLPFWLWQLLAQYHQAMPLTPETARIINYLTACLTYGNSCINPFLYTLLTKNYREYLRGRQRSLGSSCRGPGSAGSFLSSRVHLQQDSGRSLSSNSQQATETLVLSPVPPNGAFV
Method in brief: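 Cloned mouse urotensin (mUR2) receptor membranes from Perkin Elmer Biosignal were immobilized in FlashPlate microplates using a proprietary coating. Each well got 19.5 μl buffer, then 0.5 μl of DMSO, reference ligand, or compound. Adding 5 μl of [125I]-Urotensin II, diluted to 5× final concentration in binding buffer, started binding. Plates were sealed with TopSeal-A and incubated 1 hour at room temperature in the dark. Wells were counted for 30 seconds each on a TopCount after a 60-second delay, and percentage inhibition was calculated.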

Human neurokinin (NK1) = molecular target: T10, Human neurokinin (NK1) (Homo sapiens, UniProt P25103); assay: Radioligand binding, human neurokinin NK1 membranes, filtration, [125I]-Substance P; conditions: compound at 10 μM, [125I]-Substance P
T10 construct: purchased Perkin Elmer Biosignal
Method in brief: as §2

Human melanocortin (MC5) = molecular target: T11, Human melanocortin (MC5) (Homo sapiens, UniProt P33032); assay: Radioligand binding, human melanocortin MC5 membranes, FlashPlate, [125I]-NDP-αMSH; conditions: compound at 10 μM, [125I]-NDP-αMSH
T11 construct: purchased Perkin Elmer Biosignal
Method in brief: as §1

T5 sequence (P41145 whole entry): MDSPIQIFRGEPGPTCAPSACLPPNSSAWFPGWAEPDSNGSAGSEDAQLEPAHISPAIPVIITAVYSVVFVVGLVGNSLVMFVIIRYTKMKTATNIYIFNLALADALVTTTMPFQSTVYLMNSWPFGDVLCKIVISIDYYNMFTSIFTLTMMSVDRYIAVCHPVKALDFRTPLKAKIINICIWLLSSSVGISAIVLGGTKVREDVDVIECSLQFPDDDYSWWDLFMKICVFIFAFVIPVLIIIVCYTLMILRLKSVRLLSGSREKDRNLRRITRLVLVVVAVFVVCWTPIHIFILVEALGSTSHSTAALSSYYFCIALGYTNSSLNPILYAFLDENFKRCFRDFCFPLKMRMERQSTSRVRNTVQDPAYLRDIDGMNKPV
T11 sequence (P33032 whole entry): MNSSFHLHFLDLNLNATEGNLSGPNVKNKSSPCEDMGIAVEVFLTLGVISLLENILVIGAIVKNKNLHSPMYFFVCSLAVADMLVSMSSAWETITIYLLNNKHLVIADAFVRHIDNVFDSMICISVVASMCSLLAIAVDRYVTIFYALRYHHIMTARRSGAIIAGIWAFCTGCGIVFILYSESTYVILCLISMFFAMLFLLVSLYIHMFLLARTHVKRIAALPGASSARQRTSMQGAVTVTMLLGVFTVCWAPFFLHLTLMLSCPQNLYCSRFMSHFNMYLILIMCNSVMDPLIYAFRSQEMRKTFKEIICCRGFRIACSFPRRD
T10 sequence (P25103 whole entry): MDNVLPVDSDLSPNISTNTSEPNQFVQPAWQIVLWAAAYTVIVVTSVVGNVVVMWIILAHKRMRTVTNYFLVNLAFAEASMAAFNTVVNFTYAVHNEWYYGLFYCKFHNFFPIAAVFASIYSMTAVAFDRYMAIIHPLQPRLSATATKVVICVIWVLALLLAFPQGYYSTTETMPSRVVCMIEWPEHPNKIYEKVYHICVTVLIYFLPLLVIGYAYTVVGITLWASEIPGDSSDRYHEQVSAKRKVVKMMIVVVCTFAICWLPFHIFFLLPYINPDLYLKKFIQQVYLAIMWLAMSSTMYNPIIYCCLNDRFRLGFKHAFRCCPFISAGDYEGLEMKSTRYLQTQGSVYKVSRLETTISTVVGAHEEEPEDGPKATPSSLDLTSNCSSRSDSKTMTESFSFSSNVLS
T1 sequence (P41968 whole entry): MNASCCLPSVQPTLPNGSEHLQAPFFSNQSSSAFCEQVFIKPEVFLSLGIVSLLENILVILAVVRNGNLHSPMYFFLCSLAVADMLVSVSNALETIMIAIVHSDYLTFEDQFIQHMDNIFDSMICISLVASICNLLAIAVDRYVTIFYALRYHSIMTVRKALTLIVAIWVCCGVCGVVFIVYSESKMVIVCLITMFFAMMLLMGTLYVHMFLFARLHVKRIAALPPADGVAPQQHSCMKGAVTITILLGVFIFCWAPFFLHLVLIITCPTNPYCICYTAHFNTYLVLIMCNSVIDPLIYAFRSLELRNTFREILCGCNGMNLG
T8 sequence (P32245 whole entry): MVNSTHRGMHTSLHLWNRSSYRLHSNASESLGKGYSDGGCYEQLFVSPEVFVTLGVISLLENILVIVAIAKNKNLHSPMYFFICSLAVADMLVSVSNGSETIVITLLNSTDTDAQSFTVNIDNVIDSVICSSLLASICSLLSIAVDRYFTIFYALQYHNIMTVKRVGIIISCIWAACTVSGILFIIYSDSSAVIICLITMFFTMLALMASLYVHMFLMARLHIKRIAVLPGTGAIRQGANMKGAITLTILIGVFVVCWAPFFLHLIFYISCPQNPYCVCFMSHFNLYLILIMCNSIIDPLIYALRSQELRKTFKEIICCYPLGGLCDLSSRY
T6 sequence (Q99705 whole entry): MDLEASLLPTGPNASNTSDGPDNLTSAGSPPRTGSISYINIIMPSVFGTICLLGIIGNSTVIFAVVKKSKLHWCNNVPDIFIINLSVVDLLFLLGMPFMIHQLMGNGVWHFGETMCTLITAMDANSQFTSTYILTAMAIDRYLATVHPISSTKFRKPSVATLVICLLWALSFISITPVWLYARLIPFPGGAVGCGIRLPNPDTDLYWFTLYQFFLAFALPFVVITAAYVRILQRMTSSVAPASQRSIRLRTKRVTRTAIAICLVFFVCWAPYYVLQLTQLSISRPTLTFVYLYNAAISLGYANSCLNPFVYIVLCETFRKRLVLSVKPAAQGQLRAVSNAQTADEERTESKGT
T2 sequence (P41143 whole entry): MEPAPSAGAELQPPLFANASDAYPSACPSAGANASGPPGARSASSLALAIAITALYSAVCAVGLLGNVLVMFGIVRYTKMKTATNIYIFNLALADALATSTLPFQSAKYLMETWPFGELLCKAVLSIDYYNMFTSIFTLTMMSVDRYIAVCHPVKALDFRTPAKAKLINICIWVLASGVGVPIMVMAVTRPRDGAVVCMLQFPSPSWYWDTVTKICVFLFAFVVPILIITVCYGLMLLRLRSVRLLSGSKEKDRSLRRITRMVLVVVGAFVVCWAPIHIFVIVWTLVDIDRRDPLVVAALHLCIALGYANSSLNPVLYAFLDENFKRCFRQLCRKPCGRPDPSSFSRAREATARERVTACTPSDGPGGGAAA
T7 sequence (P41146 whole entry): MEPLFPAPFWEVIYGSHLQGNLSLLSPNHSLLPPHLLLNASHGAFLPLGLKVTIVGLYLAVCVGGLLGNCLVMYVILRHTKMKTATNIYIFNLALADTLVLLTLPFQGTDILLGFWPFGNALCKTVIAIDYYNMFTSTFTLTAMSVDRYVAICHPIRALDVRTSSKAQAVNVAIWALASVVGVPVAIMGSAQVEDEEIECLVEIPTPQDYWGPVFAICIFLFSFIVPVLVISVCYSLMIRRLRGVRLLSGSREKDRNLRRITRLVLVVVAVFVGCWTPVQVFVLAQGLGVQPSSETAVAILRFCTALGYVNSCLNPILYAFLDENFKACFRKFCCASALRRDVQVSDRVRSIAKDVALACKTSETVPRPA
T3 sequence (P35372 whole entry): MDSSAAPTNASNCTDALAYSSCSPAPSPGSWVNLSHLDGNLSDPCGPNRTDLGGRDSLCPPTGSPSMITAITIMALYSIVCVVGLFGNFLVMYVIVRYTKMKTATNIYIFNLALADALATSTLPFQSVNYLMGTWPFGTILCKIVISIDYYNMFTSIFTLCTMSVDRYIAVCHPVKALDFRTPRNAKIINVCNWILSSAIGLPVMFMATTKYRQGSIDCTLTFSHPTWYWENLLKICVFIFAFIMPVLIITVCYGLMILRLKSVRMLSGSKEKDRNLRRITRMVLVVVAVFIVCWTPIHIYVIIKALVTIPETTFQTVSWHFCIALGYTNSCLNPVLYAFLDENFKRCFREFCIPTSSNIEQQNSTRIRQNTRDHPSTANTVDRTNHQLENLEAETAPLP

| SMILES | A3 radioligand binding, percentage inhibition (Human Melanocortin (MC3)) | A1 radioligand binding, percentage inhibition (Human δ-opioid (DOP)) | A7 radioligand binding, percentage inhibition (Human μ-opioid (MOP)) | A9 radioligand binding, percentage inhibition [1] | A2 radioligand binding, percentage inhibition (Human κ-Opioid (KOP)) | A6 radioligand binding, percentage inhibition ([2]; [125I]-S36057) | A10 radioligand binding, percentage inhibition (Human opioid (ORL1)) | A4 radioligand binding, percentage inhibition (Human Melanocortin (MC4)) | A11 radioligand binding, percentage inhibition (Mouse urotensin (mUR2)) | A8 radioligand binding, percentage inhibition (Human neurokinin (NK1)) | A5 radioligand binding, percentage inhibition (Human melanocortin (MC5)) | other results |
| --- | --- | --- | --- | --- | --- | --- | --- | --- | --- | --- | --- | --- |
| CO[C@H]1[C@H](O)[C@@H](COCc2ccc3ccccc3c2)OC(OCc2cccc(O)c2)[C@@H]1NC(=O)CCCNC(=N)N (stereo partly drawn) [compound 168] | − (“−” indicates less than 50% inhibition at 10 μM) | − (“−” indicates less than 50% inhibition at 10 μM) | + (“+” indicates greater than 50% inhibition at 10 μM) | − (“−” indicates less than 50% inhibition at 10 μM) | − (“−” indicates less than 50% inhibition at 10 μM) | − (“−” indicates less than 50% inhibition at 10 μM) | − (“−” indicates less than 50% inhibition at 10 μM) | − (“−” indicates less than 50% inhibition at 10 μM) | − (“−” indicates less than 50% inhibition at 10 μM) | + (“+” indicates greater than 50% inhibition at 10 μM) | − (“−” indicates less than 50% inhibition at 10 μM) | – |
| COCC1OC(OCc2ccc(Cl)cc2)C(NC(=O)CN)C(OCc2ccc(-c3ccccc3)cc2)C1O (stereo not drawn) [compound 205] | – | – | – | – | – | – | – | – | – | – | – | A3: inhibition of radioligand binding (Human Melanocortin (MC3); FlashPlate): − (“−” indicates less than 50% inhibition at 10 μM); A1: inhibition of radioligand binding (Human δ-opioid (DOP); FlashPlate): − (“−” indicates less than 50% inhibition at 10 μM); A7: inhibition of radioligand binding (Human μ-opioid (MOP); FlashPlate): − (“−” indicates less than 50% inhibition at 10 μM); A9: inhibition of radioligand binding ([1]; FlashPlate): − (“−” indicates less than 50% inhibition at 10 μM); A2: inhibition of radioligand binding (Human κ-Opioid (KOP); filtration): − (“−” indicates less than 50% inhibition at 10 μM); A6: inhibition of radioligand binding ([2]; [125I]-S36057, FlashPlate): − (“−” indicates less than 50% inhibition at 10 μM); A10: inhibition of radioligand binding (Human opioid (ORL1); FlashPlate): − (“−” indicates less than 50% inhibition at 10 μM); A4: inhibition of radioligand binding (Human Melanocortin (MC4); FlashPlate): + (“+” indicates greater than 50% inhibition at 10 μM); A11: inhibition of radioligand binding (Mouse urotensin (mUR2); FlashPlate): − (“−” indicates less than 50% inhibition at 10 μM); A8: inhibition of radioligand binding (Human neurokinin (NK1); filtration): + (“+” indicates greater than 50% inhibition at 10 μM); A5: inhibition of radioligand binding (Human melanocortin (MC5); FlashPlate): + (“+” indicates greater than 50% inhibition at 10 μM) |
| COC[C@H]1OC(OCc2ccc(Cl)cc2)[C@H](NC(=O)CCCNC(=N)N)[C@@H](OCc2cccc(O)c2)[C@@H]1O (stereo partly drawn) [compound 139] | − (“−” indicates less than 50% inhibition at 10 μM) | − (“−” indicates less than 50% inhibition at 10 μM) | + (“+” indicates greater than 50% inhibition at 10 μM) | − (“−” indicates less than 50% inhibition at 10 μM) | − (“−” indicates less than 50% inhibition at 10 μM) | + (“+” indicates greater than 50% inhibition at 10 μM) | − (“−” indicates less than 50% inhibition at 10 μM) | − (“−” indicates less than 50% inhibition at 10 μM) | − (“−” indicates less than 50% inhibition at 10 μM) | − (“−” indicates less than 50% inhibition at 10 μM) | − (“−” indicates less than 50% inhibition at 10 μM) | – |
| CO[C@H]1[C@H](O)[C@@H](COCc2ccc3ccccc3c2)OC(OCc2ccc(Cl)cc2)[C@@H]1NC(=O)CCCNC(=N)N (stereo partly drawn) [compound 100] | + (“+” indicates greater than 50% inhibition at 10 μM) | − (“−” indicates less than 50% inhibition at 10 μM) | + (“+” indicates greater than 50% inhibition at 10 μM) | − (“−” indicates less than 50% inhibition at 10 μM) | − (“−” indicates less than 50% inhibition at 10 μM) | + (“+” indicates greater than 50% inhibition at 10 μM) | + (“+” indicates greater than 50% inhibition at 10 μM) | + (“+” indicates greater than 50% inhibition at 10 μM) | − (“−” indicates less than 50% inhibition at 10 μM) | + (“+” indicates greater than 50% inhibition at 10 μM) | + (“+” indicates greater than 50% inhibition at 10 μM) | – |
| COCC1OC(OCc2ccccc2)C(NC(=O)CCCN)C(OCc2ccccc2)C1O (stereo not drawn) [compound 174] | − (“−” indicates less than 50% inhibition at 10 μM) | − (“−” indicates less than 50% inhibition at 10 μM) | − (“−” indicates less than 50% inhibition at 10 μM) | − (“−” indicates less than 50% inhibition at 10 μM) | − (“−” indicates less than 50% inhibition at 10 μM) | − (“−” indicates less than 50% inhibition at 10 μM) | − (“−” indicates less than 50% inhibition at 10 μM) | − (“−” indicates less than 50% inhibition at 10 μM) | − (“−” indicates less than 50% inhibition at 10 μM) | + (“+” indicates greater than 50% inhibition at 10 μM) | − (“−” indicates less than 50% inhibition at 10 μM) | – |
| N=C(N)NCCC(=O)N[C@H]1C(OCc2ccc(Cl)cc2)O[C@H](COCc2ccc(Cl)cc2)[C@@H](O)[C@@H]1OCc1ccc(-c2ccccc2)cc1 (stereo partly drawn) [compound 538] | – | – | – | – | – | – | – | – | – | – | – | A3: inhibition of radioligand binding, human melanocortin (MC3) (Human Melanocortin (MC3)): + (“+” indicates greater than 50% inhibition at 10 μM); A1: inhibition of radioligand binding, human δ-opioid (DOP) (Human δ-opioid (DOP)): − (“−” indicates less than 50% inhibition at 10 μM); A7: inhibition of radioligand binding, human μ-opioid (MOP) (Human μ-opioid (MOP)): − (“−” indicates less than 50% inhibition at 10 μM); A9: inhibition of radioligand binding, human neuropeptide Y (NPY-Y1) ([1]; 10 µM): + (“+” indicates greater than 50% inhibition at 10 μM); A2: inhibition of radioligand binding, human κ-opioid (KOP) (Human κ-Opioid (KOP); 10 µM): + (“+” indicates greater than 50% inhibition at 10 μM); A6: inhibition of radioligand binding, human melanin-concentrating hormone (MCH1) ([2]; [125I]-S36057): + (“+” indicates greater than 50% inhibition at 10 μM); A10: inhibition of radioligand binding, human opioid (ORL1) (Human opioid (ORL1)): + (“+” indicates greater than 50% inhibition at 10 μM); A4: inhibition of radioligand binding, human melanocortin (MC4) (Human Melanocortin (MC4)): + (“+” indicates greater than 50% inhibition at 10 μM); A11: inhibition of radioligand binding, mouse urotensin (mUR2) (Mouse urotensin (mUR2); 10 µM): + (“+” indicates greater than 50% inhibition at 10 μM); A8: inhibition of radioligand binding, human neurokinin (NK1) (Human neurokinin (NK1)): + (“+” indicates greater than 50% inhibition at 10 μM); A5: inhibition of radioligand binding, human melanocortin (MC5) (Human melanocortin (MC5)): + (“+” indicates greater than 50% inhibition at 10 μM) |
